The values below come from patent US20090004145A1, “COMPOSITIONS AND METHODS INVOLVING GENE THERAPY AND PROTEASOME MODULATION” (priority 2006, published 2009).

Where a SMILES comes first, the peptide text is derived from it. The star is where a group is joined. Cbz = O=C(OCc1ccccc1)*

Holding throughout (format): cell-based, human
In experiment [1] the test system is proteasome activity in 2008 cells. In words: Proteasome activity assay (commercially available kit) on cell lysates. The following applies: 48 h. The method, then: FIG. 11. Inhibition of the proteasomal activity by MG132 results in increased ubiquitinated MDA-7 protein expression in CDDP-sensitive tumor cells but not in CDDP-resistant tumor cells. FIG. 11A, CDDP-resistant (2008/C*13 R) and sensitive (2008) ovarian tumor cells were plated in six-well plates and were treated with PBS, MG132, Ad-mda7, or Ad-mda7 plus MG132. At 48 h after treatment cells were harvested, lysates and supernatants prepared and subjected to MDA-7 and total ubiquitinated protein detection by western blotting and proteasome activity assay using commercially available kit. […] However, the MDA-7 protein was increased in 2008 cells when treated with MG132 plus Ad-mda7. […] FIG. 11B, CDDP-resistant (2008/C*13 R) and sensitive (2008) ovarian tumor cells were plated in six-well plates and were treated with PBS, MG132, Ad-p53, or Ad-p53 plus MG132. At 48 h after treatment cells were harvested, lysates and supernatants prepared and subjected to p53 protein detection by western blotting and proteasome activity using commercially available kit. […] However, the p53 protein was increased in 2008 cells when treated with MG132 plus Ad-p53.
FIG. 20. SiRNA-mediated inhibition of Beta-5 subunit expression of the 20S proteasome in CDDP-sensitive tumor cells abrogates proteasome activity. CDDP-sensitive (2008) ovarian tumor cells were plated in six-well plates. […]

The test system of experiment [2] is p53, pJNK, p38MAPK, p44/42MAPK in 2008 cells. In words: Western blotting of endogenous ubiquitinated proteins. The following applies: 24 h. The method, then:
FIG. 16. Expression of endogenous ubiquitinated proteins is increased in MG132-treated CDDP-sensitive tumor cells but not in CDDP-resistant tumor cells. CDDP-resistant (2008/C*13 R) and sensitive (2008) ovarian tumor cells were plated in six-well plates. At 24 h after plating cells were treated with PBS or MG132. At 24 h after treatment cells were harvested, lysates prepared and subjected to western blotting. Primary antibodies used were anti-human p53, anti-human pJNK, antihuman-p38MAPK and anti-human p44/42MAPK antibody. […] Beta-actin was used as internal loading control.
FIG. 19. SiRNA-mediated inhibition of Beta-5 subunit expression of the 20S proteasome in CDDP-sensitive tumor cells results in increased endogenous protein expression. CDDP-sensitive (2008) ovarian tumor cells were plated in six-well plates. At 24 h after plating cells were treated with PBS, control SiRNA, or beta-5 specific SiRNAs (100 nM). At 48 h after treatment cells were harvested, lysates prepared and subjected to western blotting. Primary antibodies used were anti-human beta-5 antibody, anti-human p53 antibody and anti-human pJNK antibody. […] Beta-actin was used as internal loading control.
Expression of Endogenous Ubiquitinated Proteins is Increased in MG132-Treated CDDP-Sensitive Tumor Cells but not in CDDP-Resistant Tumor Cells. […]
Background: Immunoblotting shows a protein as a band on a membrane.

Experiment [3] has as its system total ubiquitinated proteins in 2008 cells. In words: Western blotting of total ubiquitinated proteins. The conditions noted are these: 24 h. The method, then: FIG. 9. CDDP-resistant tumor cells have more endogenous ubiquitinated proteins. CDDP-resistant (2008/C*13 R) and sensitive (2008) ovarian tumor cells were plated in six-well plates and were untreated or treated with MG132. Cells were harvested 24 h after treatment, total cell lysate prepared and subjected to western blotting. Membrane was probed with human anti-ubiquitinated antibody.
CDDP-Resistant Tumor Cells Have More Endogenous Ubiquitinated Proteins. CDDP-resistant (2008/C*13 R) and sensitive (2008) ovarian tumor cells were plated in six-well plates and were untreated or treated with MG132. Cells were harvested 24 h after treatment, total cell lysate prepared and subjected to western blotting. Membrane was probed with human anti-ubiquitinated antibody. […] (FIG. 9)

With `CC(C)C[C@@H](C=O)NC(=O)[C@H](CC(C)C)NC(=O)[C@H](CC(C)C)NC(=O)OCc1ccccc1` [MG132] (Cbz-Leu-Leu-Leu-aldehyde), the “inhibition of proteasome activity” value in experiment [1] (FIG. 11A (Ad-mda7 experiment)) and in experiment [1] (FIG. 11B (Ad-p53 experiment)) was 60-65% throughout. In experiment [2], the “expression of p53, pJNK, p38MAPK, p44/42MAPK” value is given as “increased expression”. The “total ubiquitinated protein levels” value in experiment [3] was “greatly increased”.
